Source: patent US20220242870A1, “HETEROCYCLE-FUSED PYRIMIDINE DERIVATIVE AND USE THEREOF” (VORONOI Inc., priority 2019, published 2022)

What was measured:
Test in all cases: scanMAX kinase assay panel
Format in all cases: binding
Conditions in all cases: read-out: control percentage (% control)
[1] = target: T1, ROCK2 (Homo sapiens, UniProt O75116)
T1 construct: purchased DiscoverX scanMAX kinase assay panel
Method: (§1) The activities of the compounds according to the present invention to more diverse enzymes were evaluated. Specifically, it was decided that the enzyme selectivity of Example 74 selected from the compounds of Examples 1 to 129 was measured at the request of DiscoverX, and the experiment was conducted using a scanMAX™ kinase assay panel. At this time, as a drug to treat the enzyme, a solution prepared by dissolving in DMSO at a concentration of 1 μM was used, and the control percentage (% control) was determined by the method of Equation 1 below, and the results were shown in Table 2 below.
(§2) In Equation above, the positive control and negative control mean compounds showing control percentages of 0% and 100% as DMSO, respectively.

[2] = target: T2, FLT3(D835V) (Homo sapiens, UniProt P36888, D835V)
T2 construct: purchased DiscoverX scanMAX kinase assay panel
Method: as §1, §2

[3] = target: T3, CDK4-cyclinD3 (Homo sapiens, UniProt P11802)
T3 construct: purchased DiscoverX (scanMAX panel, contract assay)
T3 sequence (P11802 whole entry): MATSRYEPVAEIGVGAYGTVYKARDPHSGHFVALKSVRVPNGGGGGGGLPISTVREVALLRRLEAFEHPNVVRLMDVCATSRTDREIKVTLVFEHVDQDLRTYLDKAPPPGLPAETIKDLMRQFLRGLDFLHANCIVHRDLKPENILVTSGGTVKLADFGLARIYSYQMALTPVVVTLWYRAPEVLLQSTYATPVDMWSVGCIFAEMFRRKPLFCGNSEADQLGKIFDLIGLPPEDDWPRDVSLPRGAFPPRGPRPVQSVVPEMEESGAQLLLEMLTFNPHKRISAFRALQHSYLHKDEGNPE
T3 sequence (P30281 whole entry partner): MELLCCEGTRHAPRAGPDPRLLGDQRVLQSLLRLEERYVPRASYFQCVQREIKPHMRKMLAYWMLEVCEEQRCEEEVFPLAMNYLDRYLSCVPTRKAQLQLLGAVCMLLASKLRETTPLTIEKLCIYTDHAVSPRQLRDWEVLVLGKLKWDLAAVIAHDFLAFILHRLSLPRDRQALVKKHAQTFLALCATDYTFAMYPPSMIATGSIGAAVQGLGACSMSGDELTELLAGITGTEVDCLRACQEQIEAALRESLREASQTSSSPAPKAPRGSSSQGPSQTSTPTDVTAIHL
Method: as §1, §2

[4] = target: T4, PRP4 (Homo sapiens, UniProt Q13523)
T4 construct: purchased DiscoverX scanMAX kinase assay panel
Method: as §1, §2

[5] = target: T5, JNK2 (Homo sapiens, UniProt P45984)
T5 construct: purchased DiscoverX scanMAX kinase assay panel
Method: as §1, §2

[6] = target: T6, MARK4 (Homo sapiens, UniProt Q96L34)
T6 construct: purchased DiscoverX scanMAX kinase assay panel
T6 sequence (Q96L34 whole entry): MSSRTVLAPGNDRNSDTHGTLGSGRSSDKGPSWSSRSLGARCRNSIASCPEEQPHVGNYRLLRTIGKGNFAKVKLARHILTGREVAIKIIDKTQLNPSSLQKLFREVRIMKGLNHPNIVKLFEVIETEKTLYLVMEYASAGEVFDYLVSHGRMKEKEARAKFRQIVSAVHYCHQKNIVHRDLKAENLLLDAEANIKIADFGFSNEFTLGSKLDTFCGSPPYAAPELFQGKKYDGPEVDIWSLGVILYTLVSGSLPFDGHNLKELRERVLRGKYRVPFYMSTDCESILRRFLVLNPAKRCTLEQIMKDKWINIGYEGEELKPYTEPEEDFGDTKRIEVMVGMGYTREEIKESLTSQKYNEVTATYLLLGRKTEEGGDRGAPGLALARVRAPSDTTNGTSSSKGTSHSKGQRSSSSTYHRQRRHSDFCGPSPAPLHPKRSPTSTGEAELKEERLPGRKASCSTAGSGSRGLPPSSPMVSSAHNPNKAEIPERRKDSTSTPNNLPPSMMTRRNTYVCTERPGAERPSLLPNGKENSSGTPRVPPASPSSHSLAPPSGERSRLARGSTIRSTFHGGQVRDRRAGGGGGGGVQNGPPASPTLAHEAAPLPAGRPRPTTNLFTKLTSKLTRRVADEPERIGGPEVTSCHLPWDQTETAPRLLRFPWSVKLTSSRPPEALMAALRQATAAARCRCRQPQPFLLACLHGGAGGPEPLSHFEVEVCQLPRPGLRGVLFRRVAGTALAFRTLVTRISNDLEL
Method: as §1, §2

[7] = target: T7, ALK (Homo sapiens, UniProt Q9UM73)
T7 construct: purchased DiscoverX (scanMAX panel, contract assay)
Method: as §1, §2

[8] = target: T8, MLK1 (Homo sapiens, UniProt P80192)
T8 construct: purchased DiscoverX scanMAX kinase assay panel
Method: as §1, §2

[9] = target: T9, CDK4 (Homo sapiens, UniProt P11802)
T9 construct: purchased DiscoverX (scanMAX panel, contract assay)
T9 sequence (P11802 whole entry): as the sequence (P11802 whole entry) above
Method: as §1, §2

[10] = target: T10, MAP4K5 (Homo sapiens, UniProt Q9Y4K4)
T10 construct: purchased DiscoverX scanMAX kinase assay panel
Method: as §1, §2

[11] = target: T11, ULK1 (Homo sapiens, UniProt O75385)
T11 construct: purchased DiscoverX
Method: as §1, §2

[12] = target: T12, MET(M1250T) (Homo sapiens, UniProt P08581, M1250T)
T12 construct: purchased DiscoverX scanMAX kinase assay panel
Method: as §1, §2

[13] = target: T13, ABL1(Q252H)-nonphosphorylated (Homo sapiens, UniProt P00519, Q252H)
T13 construct: purchased DiscoverX (scanMAX panel, contract assay)
Method: as §1, §2

[14] = target: T14, RET(V804M) (Homo sapiens, UniProt P07949, V804M)
T14 construct: purchased DiscoverX scanMAX kinase assay panel
Method: as §1, §2

[15] = target: T15, MEK2 (Homo sapiens, UniProt P36507)
T15 construct: purchased DiscoverX scanMAX kinase assay panel
Method: as §1, §2

[16] = target: T16, PIP5K1A (Homo sapiens, UniProt Q99755)
T16 construct: purchased DiscoverX scanMAX kinase assay panel
Method: as §1, §2

[17] = target: T17, TNIK (Homo sapiens, UniProt Q9UKE5)
T17 construct: purchased DiscoverX
Method: as §1, §2

[18] = target: T18, LCK (Homo sapiens, UniProt P06239)
T18 construct: purchased DiscoverX scanMAX kinase assay panel
Method: as §1, §2

[19] = target: T19, PIP5K2B (Homo sapiens, UniProt P78356)
T19 construct: purchased DiscoverX scanMAX kinase assay panel
Method: as §1, §2

[20] = target: T20, AXL (Homo sapiens, UniProt P30530)
T20 construct: purchased DiscoverX (scanMAX panel, contract assay)
T20 sequence (P30530 26-894): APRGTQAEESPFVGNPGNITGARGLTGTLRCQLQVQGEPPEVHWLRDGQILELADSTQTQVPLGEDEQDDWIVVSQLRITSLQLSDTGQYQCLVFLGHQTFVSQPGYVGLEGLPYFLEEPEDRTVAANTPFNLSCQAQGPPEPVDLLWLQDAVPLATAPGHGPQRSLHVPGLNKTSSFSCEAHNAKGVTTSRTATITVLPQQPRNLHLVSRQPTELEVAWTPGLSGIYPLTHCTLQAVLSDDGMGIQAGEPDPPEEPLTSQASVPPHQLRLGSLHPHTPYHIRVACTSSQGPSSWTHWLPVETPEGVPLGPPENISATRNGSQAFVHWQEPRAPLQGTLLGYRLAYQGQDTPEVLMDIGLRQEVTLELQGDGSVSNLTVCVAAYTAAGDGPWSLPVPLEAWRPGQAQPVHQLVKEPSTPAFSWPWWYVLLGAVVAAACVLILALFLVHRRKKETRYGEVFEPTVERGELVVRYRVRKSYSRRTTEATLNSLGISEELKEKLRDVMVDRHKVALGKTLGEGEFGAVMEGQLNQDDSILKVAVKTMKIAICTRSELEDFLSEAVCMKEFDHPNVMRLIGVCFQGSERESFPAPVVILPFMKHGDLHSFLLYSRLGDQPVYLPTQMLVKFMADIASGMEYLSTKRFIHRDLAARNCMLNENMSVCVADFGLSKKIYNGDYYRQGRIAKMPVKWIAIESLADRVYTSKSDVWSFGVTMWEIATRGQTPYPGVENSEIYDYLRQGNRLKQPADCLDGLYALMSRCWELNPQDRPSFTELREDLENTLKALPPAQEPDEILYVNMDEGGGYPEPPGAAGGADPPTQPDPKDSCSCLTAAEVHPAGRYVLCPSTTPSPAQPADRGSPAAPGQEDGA
Method: as §1, §2

[21] = target: T21, TTK (Homo sapiens, UniProt P33981)
T21 construct: purchased DiscoverX
T21 sequence (P33981 whole entry): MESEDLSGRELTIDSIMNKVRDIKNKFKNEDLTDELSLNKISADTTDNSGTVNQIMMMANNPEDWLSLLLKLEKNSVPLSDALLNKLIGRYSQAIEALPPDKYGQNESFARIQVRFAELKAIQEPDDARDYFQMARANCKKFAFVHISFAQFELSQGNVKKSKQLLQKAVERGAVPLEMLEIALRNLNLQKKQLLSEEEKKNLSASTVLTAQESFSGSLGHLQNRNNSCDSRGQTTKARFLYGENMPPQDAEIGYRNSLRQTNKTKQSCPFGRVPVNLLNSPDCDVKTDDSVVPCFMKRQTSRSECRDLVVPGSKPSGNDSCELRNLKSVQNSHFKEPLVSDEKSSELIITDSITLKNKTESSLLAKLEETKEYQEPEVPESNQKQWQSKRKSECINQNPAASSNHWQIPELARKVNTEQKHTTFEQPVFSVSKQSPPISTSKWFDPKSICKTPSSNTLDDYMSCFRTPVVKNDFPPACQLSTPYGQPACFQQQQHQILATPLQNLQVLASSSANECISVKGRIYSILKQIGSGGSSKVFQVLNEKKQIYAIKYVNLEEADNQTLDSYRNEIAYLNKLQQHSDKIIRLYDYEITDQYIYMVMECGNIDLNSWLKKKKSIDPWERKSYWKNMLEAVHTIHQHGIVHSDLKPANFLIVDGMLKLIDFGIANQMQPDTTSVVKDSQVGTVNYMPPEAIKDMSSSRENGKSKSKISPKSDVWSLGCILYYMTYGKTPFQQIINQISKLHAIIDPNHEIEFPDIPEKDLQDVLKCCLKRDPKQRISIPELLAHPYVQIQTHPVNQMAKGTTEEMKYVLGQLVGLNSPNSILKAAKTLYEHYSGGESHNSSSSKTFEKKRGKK
Method: as §1, §2

[22] = target: T22, RET(M918T) (Homo sapiens, UniProt P07949, M918T)
T22 construct: purchased DiscoverX scanMAX kinase assay panel
Method: as §1, §2

[23] = target: T23, FLT3(K663Q) (Homo sapiens, UniProt P36888, K663Q)
T23 construct: purchased DiscoverX scanMAX kinase assay panel
Method: as §1, §2

[24] = target: T24, PIP5K2C (Homo sapiens, UniProt Q8TBX8)
T24 construct: purchased DiscoverX scanMAX kinase assay panel
T24 sequence (Q8TBX8 whole entry): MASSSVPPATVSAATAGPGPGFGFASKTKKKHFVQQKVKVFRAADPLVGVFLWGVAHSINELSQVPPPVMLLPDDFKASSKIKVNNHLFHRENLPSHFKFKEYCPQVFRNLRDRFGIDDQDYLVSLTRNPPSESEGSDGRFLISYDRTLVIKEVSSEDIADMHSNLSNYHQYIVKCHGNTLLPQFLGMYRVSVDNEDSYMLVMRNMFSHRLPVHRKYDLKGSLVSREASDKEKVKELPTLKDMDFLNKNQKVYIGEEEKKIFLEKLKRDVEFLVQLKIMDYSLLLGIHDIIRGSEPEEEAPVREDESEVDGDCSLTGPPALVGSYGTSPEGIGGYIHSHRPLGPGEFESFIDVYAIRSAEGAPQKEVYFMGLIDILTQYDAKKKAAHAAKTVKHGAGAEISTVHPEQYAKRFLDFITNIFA
Method: as §1, §2

[25] = target: T25, NEK10 (Homo sapiens, UniProt Q6ZWH5)
T25 construct: purchased DiscoverX scanMAX kinase assay panel
Method: as §1, §2

[26] = target: T26, DMPK (Homo sapiens, UniProt Q09013)
T26 construct: purchased DiscoverX scanMAX kinase assay panel
Method: as §1, §2

[27] = target: T27, ULK3 (Homo sapiens, UniProt Q6PHR2)
T27 construct: purchased DiscoverX
Method: as §1, §2

[28] = target: T28, CIT (Homo sapiens, UniProt O14578)
T28 construct: purchased DiscoverX (scanMAX panel, contract assay)
Method: as §1, §2

[29] = target: T29, MERTK (Homo sapiens, UniProt Q12866)
T29 construct: purchased DiscoverX scanMAX kinase assay panel
Method: as §1, §2

[30] = target: T30, MUSK (Homo sapiens, UniProt O15146)
T30 construct: purchased DiscoverX scanMAX kinase assay panel
T30 sequence (O15146 24-869): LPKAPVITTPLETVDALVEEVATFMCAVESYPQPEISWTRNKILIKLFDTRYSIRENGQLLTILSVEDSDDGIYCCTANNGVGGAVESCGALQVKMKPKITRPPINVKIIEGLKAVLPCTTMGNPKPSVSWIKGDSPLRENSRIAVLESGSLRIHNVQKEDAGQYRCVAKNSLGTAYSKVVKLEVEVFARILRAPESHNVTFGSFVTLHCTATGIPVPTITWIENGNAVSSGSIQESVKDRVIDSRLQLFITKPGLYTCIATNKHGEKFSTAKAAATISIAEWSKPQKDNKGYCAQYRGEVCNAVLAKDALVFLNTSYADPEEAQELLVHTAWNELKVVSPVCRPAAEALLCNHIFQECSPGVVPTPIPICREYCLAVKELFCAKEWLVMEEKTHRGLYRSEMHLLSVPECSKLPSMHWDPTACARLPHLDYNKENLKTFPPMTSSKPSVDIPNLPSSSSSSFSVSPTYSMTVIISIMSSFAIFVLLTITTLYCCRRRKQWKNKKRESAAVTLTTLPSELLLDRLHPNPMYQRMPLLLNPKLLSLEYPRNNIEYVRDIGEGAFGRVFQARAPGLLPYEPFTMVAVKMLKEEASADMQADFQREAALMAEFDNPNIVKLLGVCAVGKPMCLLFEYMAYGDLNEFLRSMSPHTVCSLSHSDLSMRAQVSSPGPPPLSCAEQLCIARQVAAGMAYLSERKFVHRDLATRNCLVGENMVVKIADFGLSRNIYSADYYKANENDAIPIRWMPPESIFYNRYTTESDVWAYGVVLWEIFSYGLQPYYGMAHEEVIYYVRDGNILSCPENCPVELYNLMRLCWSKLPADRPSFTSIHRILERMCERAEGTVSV
Method: as §1, §2

[31] = target: T31, SLK (Homo sapiens, UniProt Q9H2G2)
T31 construct: purchased DiscoverX
Method: as §1, §2

[32] = target: T32, TAK1 (Homo sapiens, UniProt O43318)
T32 construct: purchased DiscoverX
T32 sequence (O43318 whole entry): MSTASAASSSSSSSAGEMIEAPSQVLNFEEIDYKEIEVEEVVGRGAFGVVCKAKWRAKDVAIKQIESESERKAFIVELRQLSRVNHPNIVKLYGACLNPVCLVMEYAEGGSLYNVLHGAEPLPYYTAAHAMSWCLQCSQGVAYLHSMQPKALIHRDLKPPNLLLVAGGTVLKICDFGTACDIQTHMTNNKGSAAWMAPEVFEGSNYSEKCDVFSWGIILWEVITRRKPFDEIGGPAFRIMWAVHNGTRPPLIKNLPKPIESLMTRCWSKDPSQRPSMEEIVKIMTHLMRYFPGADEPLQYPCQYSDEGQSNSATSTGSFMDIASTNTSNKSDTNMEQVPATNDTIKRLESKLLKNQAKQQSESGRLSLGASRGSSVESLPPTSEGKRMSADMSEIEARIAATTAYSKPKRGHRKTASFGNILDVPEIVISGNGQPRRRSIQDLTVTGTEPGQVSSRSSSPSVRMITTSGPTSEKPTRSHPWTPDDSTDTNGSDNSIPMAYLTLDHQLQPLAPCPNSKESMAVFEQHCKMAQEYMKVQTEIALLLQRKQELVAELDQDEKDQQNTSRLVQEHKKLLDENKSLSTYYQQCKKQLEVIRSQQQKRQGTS
Method: as §1, §2

[33] = target: T33, GRK4 (Homo sapiens, UniProt P32298)
T33 construct: purchased DiscoverX scanMAX kinase assay panel
Method: as §1, §2

[34] = target: T34, YSK4 (Homo sapiens, UniProt Q56UN5)
T34 construct: purchased DiscoverX
Method: as §1, §2

[35] = target: T35, ALK(C1156Y) (Homo sapiens, UniProt Q9UM73, C1156Y)
T35 construct: purchased DiscoverX (scanMAX panel, contract assay)
Method: as §1, §2

[36] = target: T36, FLT3 (Homo sapiens, UniProt P36888)
T36 construct: purchased DiscoverX scanMAX kinase assay panel
Method: as §1, §2

CN1CCN(c2ccc(Nc3nc(N4OCC[C@H]4c4ccccc4)c4cc[nH]c4n3)cc2)CC1 [Example 74, (S)-N-(4-(4-methylpiperazin-1-yl)phenyl)-4-(3-phenylisoxazolidin-2-yl)-7H-pyrrolo[2,3-d]pyrimidin-2-amine]
remaining binding at 1 µM [1]: 8% | remaining binding at 1 µM [2]: 1.7% | remaining binding at 1 µM [3]: 3% | remaining binding at 1 µM [4]: 20% | remaining binding at 1 µM [5]: 29% | remaining binding at 1 µM [6]: 18% | remaining binding at 1 µM [7]: 31% | remaining binding at 1 µM [8]: 24% | remaining binding at 1 µM [9]: 10% | remaining binding at 1 µM [10]: 21% | remaining binding at 1 µM [11]: 8.1% | remaining binding at 1 µM [12]: 11% | remaining binding at 1 µM [13]: 24% | remaining binding at 1 µM [14]: 3.9% | remaining binding at 1 µM [15]: 17% | remaining binding at 1 µM [16]: 1.2% | remaining binding at 1 µM [17]: 27% | remaining binding at 1 µM [18]: 12% | remaining binding at 1 µM [19]: 18% | remaining binding at 1 µM [20]: 3.2% | remaining binding at 1 µM [21]: 13% | remaining binding at 1 µM [22]: 20% | remaining binding at 1 µM [23]: 2.3% | remaining binding at 1 µM [24]: 26% | remaining binding at 1 µM [25]: 0% | remaining binding at 1 µM [26]: 0.65% | remaining binding at 1 µM [27]: 13% | remaining binding at 1 µM [28]: 0.3% | remaining binding at 1 µM [29]: 29% | remaining binding at 1 µM [30]: 0.4% | remaining binding at 1 µM [31]: 0.25% | remaining binding at 1 µM [32]: 16% | remaining binding at 1 µM [33]: 9.3% | remaining binding at 1 µM [34]: 8.6% | remaining binding at 1 µM [35]: 15% | remaining binding at 1 µM [36]: 3.9%
